The target of the experiment is Kelch-like ECH-associated protein 1 (KEAP1) (Homo sapiens, UniProt Q14145). It is filed as cell-based.

SMILES strings stand for the structures.

Kelch-like ECH-associated protein 1 (KEAP1), sequence (Q14145 whole entry): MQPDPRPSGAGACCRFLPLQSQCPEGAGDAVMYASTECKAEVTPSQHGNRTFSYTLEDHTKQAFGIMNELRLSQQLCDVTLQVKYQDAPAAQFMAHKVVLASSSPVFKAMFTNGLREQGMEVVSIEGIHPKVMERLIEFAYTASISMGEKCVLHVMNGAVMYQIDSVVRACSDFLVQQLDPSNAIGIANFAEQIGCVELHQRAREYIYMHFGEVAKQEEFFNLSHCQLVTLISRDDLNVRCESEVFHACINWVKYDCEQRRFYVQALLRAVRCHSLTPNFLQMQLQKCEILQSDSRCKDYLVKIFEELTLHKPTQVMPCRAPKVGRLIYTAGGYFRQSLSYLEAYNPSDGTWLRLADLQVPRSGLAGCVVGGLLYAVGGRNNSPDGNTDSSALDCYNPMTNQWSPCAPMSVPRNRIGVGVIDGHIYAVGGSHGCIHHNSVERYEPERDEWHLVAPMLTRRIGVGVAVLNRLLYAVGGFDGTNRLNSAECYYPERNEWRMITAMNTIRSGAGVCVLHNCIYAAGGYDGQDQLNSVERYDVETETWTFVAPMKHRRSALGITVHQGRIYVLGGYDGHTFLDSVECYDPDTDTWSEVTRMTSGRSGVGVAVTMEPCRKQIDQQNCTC

As a reminder, the EC50 is the concentration at which the effect is half-maximal. `Cc1cc(C)c(C#N)c(S(C)(=O)=O)n1` [compound 1, 2-methylsulfony-4,6-diemthyl-nicotinonitrile]: a half-maximal response (EC50) required 1100 nM.
